Laboratory results taken from patent US9969977B2, “Cell populations which co-express CD49c and CD90” (GARNET BIOTHERAPEUTICS, priority 2002, dated 2018).

Tested on: cells which co-expressed CD49c and CD90
Assay: qPCR of Sox-2 and Musashi transcripts with and without nifedipine treatment
Type: cell-based, human
Conditions: 5 μM nifedipine
Experimental: The expression of transcripts for Sox-2 and Musashi were determined using quantitative polymerase chain reaction (qPCR). Briefly, Master Cell Bank of CFUs were derived from a bone marrow aspirate and stored as frozen aliquots using the method of Example 1. An aliquot was thawed and the cells were seeded in 96 well plates at 2000 cells/well in complete media and incubated at 37° C. in an atmosphere consisting of 5% carbon dioxide, 5% oxygen and 90% nitrogen for 3 days. On the third day of culture, cells were treated with 5 μM nifedipine (an L-type calcium channel blocker). After 24 hours of treatment, RNA was isolated using the QIAGEN®RNeasy reagents and the Qiagen Biorobot 3000. An aliquot of the eluted RNA was used to synthesize cDNA. Specifically, RNA was mixed with Promega MMLV, dNTPS, decamers and RNasin and incubated at 37° C. for 1 hour, followed by heat inactivation.
For quantitative PCR, cDNA samples were combined with Applied Biosystems SYBR Green PCR Core reagents and amplicon specific primers, as described below, in a 384 well format. The 384 well plate was then transferred to the Applied Biosystems ABI Prism 7900 for qPCR analysis. The qPCR program entailed a 2 minute cycle at 50 degrees, followed by a 10 minute cycle at 95 degrees to activate the polymerase. This was then followed by 40 amplification cycles consisting of 15 seconds of melting at 95 degrees and one minute of extension/annealing at 60 degrees. Cycle threshold values were converted into relative transcript number using a standard curve then normalized using the corresponding 18s. Data are expressed as a ratio of transcript per 10^6 18s transcripts.

COC(=O)C1=C(C)NC(C)=C(C(=O)OC)C1c1ccccc1[N+](=O)[O-] [nifedipine]
Sox-2 expression in response to nifedipine (24 hours): 28 transcripts/10^6 transcripts of 18S RNA | Musashi expression in response to nifedipine (24 hours of stimulation): 0.093 transcripts/10^6 transcripts of 18S RNA | increase in Musashi expression (24 hours vs unstimulated): ~17 fold | increase in Sox-2 expression (24 hours vs unstimulated): ~7 fold
